Assay results reported in patent US20230382869A1, “Phenyl-3,4-dihydroisoquinolin-2(1h)-yl-ethan-1-one derivatives as dopamine d1receptor positive allosteric modulators” (Eli Lilly and Company, priority 2020, published 2023).
pEC50: −log10 of the molar value.

Target: human D1 receptor (Homo sapiens (Human), UniProt P21728)
Assay: Human D1 Receptor PAM Assay (cAMP HTRF, potentiator mode)
Format: cell-based
Conditions: for pEC50: HEK293 cells expressing human D1, with EC20 dopamine (12 nM final), cAMP, read-out: Abs EC50; for % Top (% Potentiation): fitted top, 0% = EC20 dopamine alone, 100% = 5 μM dopamine
From the text: The PAM activity of the compounds of the present invention may be measured essentially as described in Svensson et al., An Allosteric Potentiator of the Dopamine D1 Receptor Increases Locomotor Activity in Human D1 Knock-in Mices without Casusing Stereotypy or Tachyphylaxis. J. Pharmacol. Exp. Ther. (2017) 360:117-128.
More specifically, HEK293 cells that stably express the human D1 receptor (Accession number NM_000794) are generated by gene transduction using the pBABE-bleo retroviral vector and selected with Zeocin™ (InvivoGen). At approximately 80% confluency, the cells are harvested using TrypLE™ Express (Gibco), suspended in FBS plus 8% DMSO, and stored in liquid nitrogen. On the day of the assay, cells are thawed and resuspended in STIM buffer (Hanks Balanced Salt Solution supplemented with 0.1% BSA, 20 mM HEPES, 500 μM IBMX, and 100 μM ascorbic acid).
Test compound is serially diluted (1:2) with DMSO into assay plates (ProxiPlate-384 Plus, PerkinElmer) using acoustic dispensing (Labcyte) to provide 20 concentrations for full response curves. Test compound (80 nL) is added to 5 μL STIM buffer containing 2000 cells, and 5 μL of a 2×concentration dopamine solution in STIM buffer that will generate an EC20 level response (24 nM in stock solution, or 12 nM final) and a final DMSO concentration in the well of 0.8%. Plates are incubated at room temperature for a total reaction time of 60 min.
cAMP production is quantified using HTRF® detection (Cisbio) according to the manufacturer's instructions. Generally, lysis buffer containing anti-cAMP cryptate (5 μL) and D2-conjugate (from HTRF® kit)(5 μL) is added to the wells, plates are incubated for an additional 60-90 min, and the time-resolved fluorescence is detected using an EnVision™ plate reader (PerkinElmer). Fluorescence data is converted to cAMP concentrations using a cAMP standard curve and analyzing using a 4-parameter non-linear logistic equation (Genedata Screener, version 13.0.5-standard). For potentiator mode concentration-response curves, results are expressed as percent of the window between a response at EC20 concentration of dopamine alone (normalized to 0%) and the maximum response to dopamine (defined by response to 5 μM dopamine, final concentration, normalized as 100%). Absolute EC50 values are calculated based on the maximum and minimum responses of the control agonist (dopamine). The % Potentiation (% Top) is determined from the fitted top of the concentration response curve.

Sequence of human D1 receptor (P21728 whole entry): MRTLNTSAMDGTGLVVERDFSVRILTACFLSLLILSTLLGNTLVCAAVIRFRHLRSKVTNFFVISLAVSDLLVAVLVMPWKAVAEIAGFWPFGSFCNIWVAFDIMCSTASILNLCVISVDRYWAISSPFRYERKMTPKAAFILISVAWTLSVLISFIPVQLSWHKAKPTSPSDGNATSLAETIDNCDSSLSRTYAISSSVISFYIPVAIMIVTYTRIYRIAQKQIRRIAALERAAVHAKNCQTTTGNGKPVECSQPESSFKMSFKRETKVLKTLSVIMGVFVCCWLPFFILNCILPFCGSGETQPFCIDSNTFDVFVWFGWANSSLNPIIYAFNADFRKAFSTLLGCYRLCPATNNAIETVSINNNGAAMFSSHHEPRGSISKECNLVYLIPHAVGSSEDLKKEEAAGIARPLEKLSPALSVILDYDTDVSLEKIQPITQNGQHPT

Compound | pEC50 | % Top (% Potentiation) [%]
2-(2,6-Dichlorophenyl)-1-[(1S,3R)-5-[4,4-difluoro-3-hydroxy-3-methyl-butyl]-3-(hydroxymethyl)-1-methyl-3,4-dihydro-1H-isoquinolin-2-yl]ethenone [Example 6] | 7.90 | 97.0
C[C@H]1c2cccc([C@@H]3C[C@H]3C(C)(C)O)c2C[C@H](CO)N1C(=O)Cc1c(Cl)cccc1Cl (relative stereo) [Example 1, 2-(2,6-Dichlorophenyl)-1-[(1S,3R)-3-(hydroxymethyl)-5-[trans-2-(1-hydroxy-1-methyl-ethyl)cyclopropyl]-1-methyl-3,4-dihydro-1H-isoquinolin-2-yl]ethenone] | 7.92 | 94.2
C[C@H]1c2cccc([C@@H]3C[C@@H]3C(C)(C)O)c2C[C@H](CO)N1C(=O)Cc1c(Cl)cccc1Cl (relative stereo) [Example 4, 2-(2,6-Dichlorophenyl)-1-[(1S,3R)-3-(hydroxymethyl)-5-[cis-2-(1-hydroxy-1-methyl-ethyl)cyclopropyl]-1-methyl-3,4-dihydro-1H-isoquinolin-2-yl]ethenone] | 7.06 | 93.2
C[C@@H]1c2ccc(F)c([C@@H]3C[C@H]3C(C)(C)O)c2C[C@H](CO)N1C(=O)Cc1c(F)cccc1Cl (relative stereo) [Example 8, 2-(2-chloro-6-fluoro-phenyl)-1-[(1R,3R)-6-fluoro-3-(hydroxymethyl)-5-[trans-2-(1-hydroxy-1-methyl-ethyl)cyclopropyl]-1-methyl-3,4-dihydro-1H-isoquinolin-2-yl]ethenone] | 7.47 | 78.9
C[C@@H]1c2ccc(F)c([C@@H]3C[C@H]3C(C)(C)O)c2C[C@H](CO)N1C(=O)Cc1c(F)cccc1Cl (relative stereo) [Example 9, 2-(2-chloro-6-fluoro-phenyl)-1-[(1R,3R)-6-fluoro-3-(hydroxymethyl)-5-[trans-2-(1-hydroxy-1-methyl-ethyl)cyclopropyl]-1-methyl-3,4-dihydro-1H-isoquinolin-2-yl]ethenone] | 7.88 | 82.0
C[C@H]1c2ccc(F)c([C@@H]3C[C@H]3C(C)(C)O)c2C[C@H](CO)N1C(=O)Cc1c(Cl)cccc1Cl (relative stereo) [Example 10, 2-(2,6-dichlorophenyl)-1-[(1S,3R)-6-fluoro-3-(hydroxymethyl)-5-[trans-(1-hydroxy-1-methyl-ethyl)cyclopropyl]-1-methyl-3,4-dihydro-1H-isoquinolin-2-yl]ethenone] | 7.91 | 86.9

Stronger by pEC50, values ahead:

pEC50 | % Top (% Potentiation) [%] | Compound
8.10 | 101 | 2-(2,6-Dichlorophenyl)-1-[(1S,3R)-5-[4,4-difluoro-3-hydroxy-3-methyl-butyl]-3-(hydroxymethyl)-1-methyl-3,4-dihydro-1H-isoquinolin-2-yl]ethenone [Example 5]
8.08 | 96.4 | C[C@H]1c2cccc([C@@H]3C[C@H]3C(C)(C)O)c2C[C@H](CO)N1C(=O)Cc1c(Cl)cccc1Cl (relative stereo) [Example 2, 2-(2,6-Dichlorophenyl)-1-[(1S,3R)-3-(hydroxymethyl)-5-[trans-2-(1-hydroxy-1-methyl-ethyl)cyclopropyl]-1-methyl-3,4-dihydro-1H-isoquinolin-2-yl]ethenone]
7.95 | 91.9 | C[C@H]1c2cccc([C@@H]3C[C@@H]3C(C)(C)O)c2C[C@H](CO)N1C(=O)Cc1c(Cl)cccc1Cl (relative stereo) [Example 3, 2-(2,6-Dichlorophenyl)-1-[(1S,3R)-3-(hydroxymethyl)-5-[cis-2-(1-hydroxy-1-methyl-ethyl)cyclopropyl]-1-methyl-3,4-dihydro-1H-isoquinolin-2-yl]ethenone]
8.28 | 92.7 | C[C@H]1c2ccc(F)c([C@@H]3C[C@H]3C(C)(C)O)c2C[C@H](CO)N1C(=O)Cc1c(Cl)cccc1Cl (relative stereo) [Example 11, 2-(2,6-dichlorophenyl)-1-[(1S,3R)-6-fluoro-3-(hydroxymethyl)-5-[trans-(1-hydroxy-1-methyl-ethyl)cyclopropyl]-1-methyl-3,4-dihydro-1H-isoquinolin-2-yl]ethenone]
